According to US6979686B1, “Substituted pyrazoles as p38 kinase inhibitors” (Pharmacia Corporation, priority 2001, dated 2005):
Where two headings read alike, the source gives them in different places.

Experiments:
human p38 kinase alpha = target: T1, human p38 kinase alpha (Homo sapiens, UniProt Q16539); test: p38 kinase in vitro assay, phosphorylation of biotinylated PHAS-I with 32P-ATP; type: biochemical; details: for IC50: read-out: P38 alpha kinase IC50
T1 construct: GST (N, cleaved yes); made in house; host or cells: E. coli DH10B

[1] = system: TNF-α, U937 human histiocytic lymphoma cell line; test: LPS stimulation of TNF production by U937 cells; type: cell-based; details: for inhibition at 1 µM: U-937, @ 1.0 uM
Protocol: Maintenance and Differentiation of the U937 Human Histiocytic Lymphoma Cell Line:
Fifty million cells in 100 ml media were induced to terminal monocytic differentiation by 24 hour incubation with 20 ng/ml phorbol 12-myristate 13-acetate (Sigma). The cells were washed by centrifugation (200×g for 5 min) and resuspended in 100 ml fresh medium. After 24-48 hours, the cells were harvested, centrifuged, and resuspended in culture medium at 2 million cells/ml.
LPS Stimulation of TNF Production by U937 Cells:
Compounds were prepared as 10 mM stock solutions in DMSO and diluted in culture medium to yield a final DMSO concentration of 0.1% in the cell assay. LPS (E coli, 100 ng/ml final concentration) was then added at a volume of 0.02 ml. After 4 hour incubation at 37° C., the amount of TNF-α released in the culture medium was quantitated by ELISA. Inhibitory potency is expressed as IC50 (μM).
In vitro whole cell assay for measuring the ability of the compounds to inhibit TNF production in human U937 cells stimulated with LPS are shown in the column identified as: • “U937 Cell IC50, uM or % inhib @ conc., (uM)”

[2] = in vitro P38-alpha kinase inhibition
[3] = Homo sapiens, U-937, TNF production, human U937 cells stimulated with LPS, read-out: U937 Cell IC50
[4] = @ 1.0 uM, TNF production, U937 cells stimulated with LPS
[5] = @ 10.0 uM, TNF production, U937 cells stimulated with LPS
[6] = TNF production, U937 cells stimulated with LPS, read-out: U937 Cell IC50, uM or % inhib @ conc. (uM): IC50
[7] = @ 10.0 uM, TNF production, LPS-stimulated U937 cells
[8] = @ 1.0 uM, TNF production in human U937 cells stimulated with LPS
[9] = TNF production, human U937 cells stimulated with LPS, read-out: U937 Cell IC50
[10] = Homo sapiens, TNF production, LPS-stimulated U937 cells, read-out: U937 Cell % inhib @ conc.

T1 sequence (Q16539 whole entry): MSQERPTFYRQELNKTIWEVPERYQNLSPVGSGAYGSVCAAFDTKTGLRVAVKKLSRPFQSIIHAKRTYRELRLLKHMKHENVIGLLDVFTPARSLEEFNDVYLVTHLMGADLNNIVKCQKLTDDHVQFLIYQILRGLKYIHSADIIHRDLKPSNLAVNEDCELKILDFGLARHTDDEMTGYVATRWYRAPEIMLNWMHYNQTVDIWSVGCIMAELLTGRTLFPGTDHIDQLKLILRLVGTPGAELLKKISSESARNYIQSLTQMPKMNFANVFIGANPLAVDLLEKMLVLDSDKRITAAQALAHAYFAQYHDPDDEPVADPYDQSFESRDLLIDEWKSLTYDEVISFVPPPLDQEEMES

Which results are given for `O=C(NC(Cc1ccccc1)c1[nH]nc(-c2ccc(F)cc2)c1-c1ccncc1)C1CCCC1` (stereo not shown) [Example B-0820]?
IC50 (human p38 kinase alpha; [2]): 1640 nM; inhibition at 1 µM ([1]; Homo sapiens, TNF production, U937 cells stimulated with LPS, read-out: U937 Cell % inhib @ conc.): 3%

Which results are given for `CC(NS(C)(=O)=O)c1[nH]nc(-c2ccc(F)cc2)c1-c1ccncc1` (stereo not shown) [Example B-0573]?
IC50 (human p38 kinase alpha; [2]): 360 nM; IC50 ([1]; Homo sapiens, U-937, TNF production in human U937 cells stimulated with LPS, read-out: U937 Cell IC50): 1.7 µM

How did the IC50 (human p38 kinase alpha; [2]) turn out when `O=C(NCCc1[nH]nc(-c2ccc(F)cc2)c1-c1ccncc1)c1cccc(C(F)(F)F)c1F` [Example B-1138] was run?
The IC50 was 1820 nM.

And the IC50 [1, 3]?
The IC50 was over 1 µM.

Which “P38 alpha kinase % inhib @ conc.” value (human p38 kinase alpha; @ 1.0 uM) does the source give for `CCOC(=O)C(CCSC)NC(=O)NCc1[nH]nc(-c2ccc(F)cc2)c1-c1ccncc1` (stereo not shown) [Example B-0147] here?
The value was 44.0% @.

And the “U937 Cell % inhib @ conc.” value [1, 4]?
Its value is 22.0% @.

Which results are given for `Cc1cccc(C)c1NC(=O)Cn1nc(-c2ccc(F)cc2)c(-c2ccncc2)c1C` [Example B-2417]?
P38 alpha kinase IC50, uM or % inhib @ conc. (uM): % inhib (human p38 kinase alpha; @ 10.0 uM): 83.0% @; U937 Cell IC50, uM or % inhib @ conc. (uM): % inhib [1, 5]: 18.0% @

Which results are given for `O=C(c1ccccn1)N1CCC(c2[nH]nc(-c3ccc(F)cc3)c2-c2ccncc2)CC1` [Example B-1386]?
IC50 (human p38 kinase alpha; in vitro P38-alpha kinase): < 100 nM; IC50 [1, 3]: 0.25 µM

How did the IC50 (human p38 kinase alpha; in vitro P38-alpha kinase) turn out when `O=S(=O)(c1cccc(Br)c1)N1CCC(c2[nH]nc(-c3ccc(F)cc3)c2-c2ccncc2)CC1` [Example B-1466] was run?
Its IC50 is 1690 nM.

And the IC50 [1, 3]?
The IC50 was over 1 µM.

How did the “P38 alpha kinase IC50, uM or % inhib @ conc. (uM): % inhib” value (human p38 kinase alpha; @ 100.0 uM) turn out when `Cc1cc(Cl)ccc1OCC1SCCN1C(=O)Cn1nc(-c2ccc(F)cc2)c(-c2ccncc2)c1C` (stereo not shown) [Example B-2405] was run?
Its value is 47% @.

What about the IC50 [1, 6] of the same compound?
The IC50 was over 10 µM.

For `CCN(Cc1ccncc1)C(=O)Cn1nc(-c2ccc(F)cc2)c(-c2ccncc2)c1C` [Example B-2381], which “P38 alpha kinase % inhib @ conc.” value (human p38 kinase alpha; @ 100.0 uM) is on record?
The value was 68% @.

What about the “U937 Cell % inhib @ conc.” value [1, 7] of the same compound?
The value was 2.0% @.

For `COc1ccc(CC(=O)NC(Cc2ccccc2)c2[nH]nc(-c3ccc(F)cc3)c2-c2ccncc2)cc1` (stereo not shown) [Example B-0816], which IC50 (human p38 kinase alpha; [2]) is on record?
The IC50 was 3460 nM.

And the IC50 [1, 3]?
Its IC50 is over 1 µM.

`Cc1c(-c2ccncc2)c(-c2ccc(F)cc2)nn1CC(=O)N(C)CCn1ccnc1` [Example B-2393] was tested. Which “P38 alpha kinase IC50, uM or % inhib @ conc. (uM): % inhib” value (human p38 kinase alpha; @ 10.0 uM) did it give?
Its value is 43.0% @.

What about the IC50 [1, 6] of the same compound?
The IC50 was over 10 µM.

With `Cc1c(-c2ccncc2)c(-c2ccc(F)cc2)nn1CC(=O)NC1CCCC1` [Example B-2333] as the compound, how does the “P38 alpha kinase % inhib @ conc.” value (human p38 kinase alpha; @ 10.0 uM) read?
Its value is 58.0% @.

What about the “U937 Cell % inhib @ conc.” value [1, 7] of the same compound?
Its value is 36.0% @.

How did the IC50 (human p38 kinase alpha; [2]) turn out when `Cc1cccc(C(=O)NC(C)c2[nH]nc(-c3ccc(F)cc3)c2-c2ccncc2)c1` (stereo not shown) [Example B-0692] was run?
Its IC50 is 380 nM.

What about the “U937 Cell % inhib @ conc. (uM)” value [1, 8] of the same compound?
The value was 29.0% @.

What does the source list for `CC(NC(=O)Nc1cccc(F)c1)c1[nH]nc(-c2ccc(F)cc2)c1-c1ccncc1` (stereo not shown) [Example B-0595]?
IC50 (human p38 kinase alpha; [2]): 2420 nM; U937 Cell % inhib @ conc. (uM) [1, 8]: 22.0% @

What does the source list for `CC(C)=CC(=O)NCCCc1[nH]nc(-c2ccc(F)cc2)c1-c1ccncc1` [Example B-1175]?
P38 alpha kinase % inhib @ conc. (uM) (human p38 kinase alpha; @ 1.0 uM): 72.0% @; IC50 [1, 9]: 1.83 µM

Which results are given for `O=C(NCc1[nH]nc(-c2ccc(F)cc2)c1-c1ccncc1)c1ccc(F)cc1` [Example B-0042]?
inhibition at 1 µM (human p38 kinase alpha; @ 1.0 uM, read-out: P38 alpha kinase % inhib @ conc.): 94%; IC50 [1, 3]: 2.76 µM

`O=C(NC(Cc1ccccc1)c1[nH]nc(-c2ccc(F)cc2)c1-c1ccncc1)C1CC1` (stereo not shown) [Example B-0837] was tested. Which IC50 (human p38 kinase alpha; [2]) did it give?
The IC50 was 1960 nM.

What about the IC50 [1, 9] of the same compound?
The IC50 was over 1 µM.

What does the source list for `COc1ccc2[nH]c3c(c2c1)CCN(C(=O)Cn1nc(-c2ccc(F)cc2)c(-c2ccncc2)c1C)C3` [Example B-2408]?
P38 alpha kinase IC50, uM or % inhib @ conc. (uM): % inhib (human p38 kinase alpha; @ 10.0 uM): 39.0% @; U937 Cell IC50, uM or % inhib @ conc. (uM): % inhib [1, 5]: 10.0% @

Which results are given for `O=S(=O)(c1cccc(C(F)(F)F)c1)N1CCC(c2[nH]nc(-c3ccc(F)cc3)c2-c2ccncc2)CC1` [Example B-1468]?
IC50 (human p38 kinase alpha; in vitro P38-alpha kinase): 1610 nM; inhibition at 1 µM [1, 10]: 10%

Which results are given for `O=S(=O)(c1cccc(Cl)c1)N1CCC(c2[nH]nc(-c3ccc(F)cc3)c2-c2ccncc2)CC1` [Example B-1465]?
IC50 (human p38 kinase alpha; in vitro P38-alpha kinase): 3230 nM; inhibition at 1 µM [1, 10]: 31%

`CCCNC(=O)Cn1nc(-c2ccc(F)cc2)c(-c2ccncc2)c1C` [Example B-2270] was tested. Which IC50 (human p38 kinase alpha; in vitro P38-alpha kinase) did it give?
Its IC50 is 720 nM.

And the inhibition at 10 µM ([1]; Homo sapiens, U-937, @ 10.0 uM, TNF production, LPS-stimulated U937 cells, read-out: U937 Cell % inhib @ conc.)?
The inhibition at 10 µM was 31%.

What does the source list for `COc1cccc(CC(=O)NC(C)c2[nH]nc(-c3ccc(F)cc3)c2-c2ccncc2)c1` (stereo not shown) [Example B-0550]?
IC50 (human p38 kinase alpha; [2]): 2410 nM; inhibition at 1 µM ([1]; Homo sapiens, TNF production in human U937 cells stimulated with LPS, read-out: U937 Cell % inhib @ conc.): 14%

With `O=C(NCc1[nH]nc(-c2ccc(F)cc2)c1-c1ccncc1)c1cccc(CCl)c1` [Example B-0065] as the compound, how does the “P38 alpha kinase % inhib @ conc.” value (human p38 kinase alpha; @ 1.0 uM) read?
Its value is 83% @.

What about the “U937 Cell % inhib @ conc.” value [1, 4] of the same compound?
The value was 21.0% @.
